Measurements as given in article PMC12501029, “Discovery of a CNS active GSK3 degrader using orthogonally reactive linker screening” (Nature Communications, 2025).
Where two headings read alike, the source gives them in different places.

Assay: Brain binding, equilibrium dialysis
Format: in vitro ADME
Details: brain tissue homogenate
Protocol: As for plasma protein binding experiments, 96-well equilibrium dialysis apparatus was used to determine the free fraction in brain tissue homogenate for each compound (HT Dialysis LLC, Gales Ferry, CT). Membranes (12–14 kDA cut-off) were conditioned in deionised water for 60 min, followed by conditioning in 80:20 deionised water: ethanol for 20 min, and then rinsed in isotonic buffer before use. Frozen brain tissue was thawed and homogenised in artificial CSF at a ratio of 3:1. Homogenate was then spiked with test compound (final concentration 10 μg/mL), and 150 μL aliquots (n = 6 replicate determinations) loaded into the 96-well equilibrium dialysis plate. Dialysis vs artificial CSF was carried out for 5 h in a temperature-controlled incubator at ca. 37 °C (Barworld Scientific Ltd, UK) using an orbital microplate shaker at 100 revolutions/minute (Barworld Scientific Ltd, UK). 150 μL aliquots of spiked homogenate were stored at 37 °C and 4 °C for the course of the experiment to determine recovery. At the end of the incubation period, 50 μL aliquots of homogenate or buffer were transferred to a 96 deepwell plate (Waters^TM) and the composition in each was balanced with control fluid (50 μL), such that the volume of buffer to brain homogenate is the same. Sample extraction was performed by the addition of 200 μL of acetonitrile containing an appropriate internal standard. Samples were allowed to mix for 1 min and then centrifuged at 3000 rpm in 96-well blocks for 15 min (Allegra X12-R, Beckman Coulter, USA), after which 150 μL of supernatant was removed to 50 μL of water. All samples were analysed by UPLC-MS/MS. The unbound fraction was determined as the ratio of the peak area in buffer to that in homogenate using the following equation:2 Afu=Buffer/Matrix where Afu means apparent fraction unbound
Buffer = Analyte/IS ratio in buffer side […]
The recovery of the dialysed samples was calculated by comparing the sum of the peak areas (buffer and matrix) of any test compound at 37 °C to that of the same compound at 4 °C. […]

[1] = 10 μg/mL, 5 h dialysis, read-out: Brain Tissue Binding (Fu)

SMILES | fraction unbound at 5 h, 10 μg/mL [1] | fraction unbound at 5 h, 10 μg/mL (brain binding, read-out: measured free fraction in brain)
O=C1CCC(NC(=O)c2ccc(CN3CCN(Cc4ccc(-c5cn(-c6ccc(-c7cn8nccc(C(=O)Nc9cnccc9N9CCOCC9)c8n7)cc6)nn5)nc4)CC3)cn2)C(=O)N1 (stereo not drawn) [compound 22] | 0.0029 | 
Cn1nc(N2CCC(=O)NC2=O)c2ccc(CN3CCN(Cc4ccc(-c5cn(-c6ccc(-c7cn8nccc(C(=O)Nc9cnccc9N9CCOCC9)c8n7)cc6)nn5)nc4)CC3)cc21 [compound 24] |  | 0.0012
Cn1nc(N2CCC(=O)NC2=O)c2ccc(CN3CCN(CCCc4cn(-c5ccc(-c6cn7nccc(C(=O)Nc8cnccc8N8CCOCC8)c7n6)cc5)nn4)CC3)cc21 [compound 26] | 0.012 | 
